# System: LOLMU (Lolium multiflorum)
# Assay: Greenhouse post-emergence herbicidal test, scale 0 to 100, synergism by Colby's equation
# Format: in vivo
# Description: Synergism can be described as an interaction where the combined effect of two or more compounds is greater than the sum of the individual effects of each of the compounds. The presence of a synergistic effect in terms of percent control, between two mixing partners (X and Y) can be calculated using the Colby equation (Colby, S. R., 1967, Calculating Synergistic and Antagonistic Responses in Herbicide Combinations, Weeds, 15, 21-22):
# When the observed combined control effect is greater than the expected (calculated) combined control effect (E), then the combined effect is synergistic.
# However, the weed control afforded by the compounds, mixtures or compositions is not limited to these species. The analysis of synergism or antagonism between the mixtures or compositions was determined using Colby's equation.
# The culture containers used were plastic flowerpots containing loamy sand with approximately 3.0% of humus as the substrate. The seeds of the test plants were sown separately for each species and/or resistant biotype. For the pre-emergence treatment, the active ingredients, which had been suspended or emulsified in water, were applied directly after sowing by means of finely distributing nozzles. The containers were irrigated gently to promote germination and growth and subsequently covered with transparent plastic hoods until the plants had rooted. This cover caused uniform germination of the test plants, unless this had been impaired by the active ingredients. For the post-emergence treatment, the test plants were first grown to a height of 3 to 15 cm, depending on the plant habit, and only then treated with the active ingredients which had been suspended or emulsified in water. For this purpose, the test plants were either sown directly and grown in the same containers, or they were first grown separately as seedlings and transplanted into the test containers a few days prior to treatment. Depending on the species, the plants were kept at 10-25° C. or 20-35° C., respectively. The test period extended to 20 days after treatment. During this time, the plants were tended, and their response to the individual treatments was evaluated. The evaluation was carried out by using a scale from 0 to 100. 100 means no emergence of the plants or complete destruction of at least the above-ground parts, and 0 means no damage, or normal course of growth. Data shown are the mean of two replications.
# L-Glufosinate: 5% EC formulation
# Triaziflam: 5% EC formulation
# Methiozolin: 250 g/l SC formulation
structure (smiles),measurement,setting,value
"CP(=O)(O)CC[C@H](N)C(=O)O [L-Glufosinate, (2S)-2-amino-4-[hydroxy(methyl)phosphinoyl]butyric acid]","Herbicidal activity against LOLMU, Found","L-Glufosinate alone 75 g ai/ha, scale 0-100 (100 = complete destruction), Example 1",0
same,"Herbicidal activity against LOLMU, Found","L-Glufosinate alone 75 g ai/ha, scale 0-100, Example 2",0
"Cc1ccsc1C1=NOC(C)(COCc2c(F)cccc2F)C1 (stereo not drawn) [methiozoline, methiozolin]","Herbicidal activity against LOLMU, Found","methiozoline alone 125 g ai/ha, scale 0-100, Example 2",0
same,"Herbicidal activity against LOLMU, Found","methiozoline alone 250 g ai/ha, scale 0-100, Example 2",25
Cc1cc(C)cc(OCC(C)Nc2nc(N)nc(C(C)(C)F)n2)c1 (stereo not drawn) [triaziflam],"Herbicidal activity against LOLMU, Found","triaziflam alone 125 g ai/ha, scale 0-100, Example 1",10
same,"Herbicidal activity against LOLMU, Found","triaziflam alone 250 g ai/ha, scale 0-100, Example 1",55

# Source: patent publication US11122807B2, “Herbicidal mixtures comprising L-glufosinate or its salt and a second herbicide” (BASF SE, priority 2017, dated 2021)
